Test results: PubChem BioAssay AID256 (DTP/NCI, 2004)
Several values for one entry are separate records, joined by “and”; a condition that tells them apart may be missing. Equal values may be shown once. Toxic doses and inconclusive results are not listed.

System: CD2F1 mice, L1210 leukemia ip, survival T/C
Assay: NCI In Vivo Anticancer Drug Screen. Data for tumor model L1210 Leukemia (intraperitoneal) in CD2F1 (CDF1) mice
Settings: higher = longer survival
Procedure, shortened: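 Activity against a transplanted murine tumor was judged by comparing the compound group with a vehicle group. The outcome in the treated animals was divided by that in the controls.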

[1] = endpoint: mean survival time, dose: 6.25 mg/kg/injection, schedule: Q04DX003 (ip), vehicle: saline
[2] = endpoint: mean survival time, dose: 12.5 mg/kg/injection, schedule: Q04DX003 (ip), vehicle: saline
[3] = endpoint: mean survival time, dose: 25.0 mg/kg/injection, schedule: Q04DX003 (ip), vehicle: saline
[4] = endpoint: mean survival time, dose: 100.0 mg/kg/injection, schedule: Q01DX001 (ip), vehicle: Klucel (hydroxypropylcellulose) (HPC)
[5] = endpoint: mean survival time, dose: 200.0 mg/kg/injection, schedule: Q01DX001 (ip), vehicle: Klucel (hydroxypropylcellulose) (HPC)
[6] = endpoint: mean survival time, dose: 400.0 mg/kg/injection, schedule: Q01DX001 (ip), vehicle: Klucel (hydroxypropylcellulose) (HPC)
[7] = endpoint: mean survival time, dose: 25.0 mg/kg/injection, schedule: Q01DX009 (ip), vehicle: saline with Tween-80
[8] = endpoint: mean survival time, dose: 50.0 mg/kg/injection, schedule: Q01DX009 (ip), vehicle: saline with Tween-80
[9] = endpoint: mean survival time, dose: 100.0 mg/kg/injection, schedule: Q01DX009 (ip), vehicle: saline with Tween-80
[10] = endpoint: mean survival time, dose: 200.0 mg/kg/injection, schedule: Q01DX009 (ip), vehicle: saline with Tween-80

Nc1nc(=O)n(C2OC(CO)C(O)C2O)c(=O)[nH]1 (configuration not stated)
T/C (endpoint: mean survival time, dose: 3.12 mg/kg/injection, schedule: Q04DX003 (ip), vehicle: saline): 108 % of control
T/C [1]: 97 % of control
T/C [2]: 103 % of control
T/C [3]: 95 % of control
T/C (endpoint: mean survival time, dose: 50.0 mg/kg/injection, schedule: Q04DX003 (ip), vehicle: saline): 92 % of control
T/C (endpoint: mean survival time, dose: 100.0 mg/kg/injection, schedule: Q04DX003 (ip), vehicle: saline): 100 % of control
T/C (endpoint: mean survival time, dose: 200.0 mg/kg/injection, schedule: Q04DX003 (ip), vehicle: saline): 95 % of control

O=C1Nc2ccccc2C1=O
T/C [4]: 96 % of control
T/C [5]: 102 % of control
T/C [6]: 101 % of control

N#CC(C#N)=C(C#N)c1ccccc1
T/C (endpoint: mean survival time, dose: 12.5 mg/kg/injection, schedule: Q01DX009 (ip), vehicle: saline with Tween-80): 96 % of control
T/C [7]: 98 % of control
T/C (endpoint: mean survival time, dose: 50.0 mg/kg/injection, schedule: Q01DX001 (ip), vehicle: saline with Tween-80): 94 % of control
T/C [8]: 94 % of control

CC1(C)COCN1COC1CCCCC1
T/C (endpoint: mean survival time, dose: 12.5 mg/kg/injection, schedule: Q01DX009 (ip), vehicle: suspension in saline): 95 % of control
T/C (endpoint: mean survival time, dose: 25.0 mg/kg/injection, schedule: Q01DX009 (ip), vehicle: suspension in saline): 100 % of control
T/C (endpoint: mean survival time, dose: 50.0 mg/kg/injection, schedule: Q01DX009 (ip), vehicle: suspension in saline): 103 % of control
T/C (endpoint: mean survival time, dose: 100.0 mg/kg/injection, schedule: Q01DX009 (ip), vehicle: suspension in saline): 108 % of control
T/C (endpoint: mean survival time, dose: 200.0 mg/kg/injection, schedule: Q01DX009 (ip), vehicle: suspension in saline): 105 % of control

CC1(C)CC2(OC2c2cccc(Cl)c2)C(=O)c2ccccc21 (configuration not stated)
T/C (endpoint: mean survival time, dose: 100.0 mg/kg/injection, schedule: Q01DX009 (ip), vehicle: other): 94 % of control
T/C (endpoint: mean survival time, dose: 200.0 mg/kg/injection, schedule: Q01DX009 (ip), vehicle: other): 94 % of control
T/C (endpoint: mean survival time, dose: 400.0 mg/kg/injection, schedule: Q01DX009 (ip), vehicle: other): 91 % of control

Cc1ccc(C(=O)NC2C(=O)NC(C(C)C)C(=O)N3CCCC3C(=O)N(C)CC(=O)N(C)C(C(C)C)C(=O)OC2C)c2c1Oc1c(c(C(=O)NC3C(=O)NC(C(C)C)C(=O)N4CCCC4C(=O)N(C)CC(=O)N(C)C(C(C)C)C(=O)OC3C)c3nc(-c4ccccc4)c(=O)oc3c1C)N2 (configuration not stated)
T/C (endpoint: median survival time, dose: 0.06 mg/kg/injection, schedule: Q01DX009 (ip), vehicle: water): 112 % of control
T/C (endpoint: median survival time, dose: 0.12 mg/kg/injection, schedule: Q01DX009 (ip), vehicle: water): 122 % of control
T/C (endpoint: median survival time, dose: 0.25 mg/kg/injection, schedule: Q01DX009 (ip), vehicle: water): 117 % of control

CN1CCCC1CCNc1nc(Nc2ccc(Cl)c(Cl)c2)nc2ccc(Cl)cc12 (configuration not stated)
T/C [7]: 97 % of control
T/C (endpoint: mean survival time, dose: 100.0 mg/kg/injection, schedule: Q01DX001 (ip), vehicle: saline with Tween-80): 103 % of control

NCCSC1(O)C(=O)c2ccccc2C1=O
T/C (endpoint: mean survival time, dose: 37.5 mg/kg/injection, schedule: Q01DX009 (ip), vehicle: saline): 109 % of control
T/C (endpoint: mean survival time, dose: 75.0 mg/kg/injection, schedule: Q01DX009 (ip), vehicle: saline): 109 % of control
T/C (endpoint: mean survival time, dose: 150.0 mg/kg/injection, schedule: Q01DX009 (ip), vehicle: saline): 89 % of control

Nc1nc(N)c2nc(CNc3ccc(C(=O)NCCCC(=O)O)cc3)cnc2n1 (tested in a mixture with another compound)
T/C (endpoint: mean survival time, dose: 1.0 mg/kg/injection, schedule: Q01DX009 (ip), vehicle: Klucel (hydroxypropylcellulose) (HPC)): 97 % of control
T/C (endpoint: mean survival time, dose: 5.0 mg/kg/injection, schedule: Q01DX009 (ip), vehicle: Klucel (hydroxypropylcellulose) (HPC)): 102 % of control
T/C (endpoint: mean survival time, dose: 10.0 mg/kg/injection, schedule: Q01DX009 (ip), vehicle: Klucel (hydroxypropylcellulose) (HPC)): 108 % of control
T/C (endpoint: mean survival time, dose: 20.0 mg/kg/injection, schedule: Q01DX009 (ip), vehicle: Klucel (hydroxypropylcellulose) (HPC)): 102 % of control

Oc1cc(O)c2c(c1)O[C@H](c1ccc(O)c(O)c1)[C@@H](O)C2
T/C (endpoint: mean survival time, dose: 100.0 mg/kg/injection, schedule: Q01DX001 (ip), vehicle: saline): 101 % of control
T/C (endpoint: mean survival time, dose: 200.0 mg/kg/injection, schedule: Q01DX001 (ip), vehicle: saline): 101 % of control
T/C (endpoint: mean survival time, dose: 400.0 mg/kg/injection, schedule: Q01DX001 (ip), vehicle: saline): 98 % of control

C1CCC(C2CCCC[N-]2)[N-]C1.CC([NH-])C(=O)O.[Cl][Pt] (configuration not stated)
T/C (endpoint: median survival time, dose: 10.0 mg/kg/injection, schedule: Q04DX003 (ip), vehicle: saline): 107 % of control
T/C (endpoint: median survival time, dose: 20.0 mg/kg/injection, schedule: Q04DX003 (ip), vehicle: saline): 105 % of control
T/C (endpoint: median survival time, dose: 40.0 mg/kg/injection, schedule: Q04DX003 (ip), vehicle: saline): 110 % of control
T/C (endpoint: median survival time, dose: 80.0 mg/kg/injection, schedule: Q04DX003 (ip), vehicle: saline): 97 % of control and 104 % of control
T/C (endpoint: median survival time, dose: 160.0 mg/kg/injection, schedule: Q04DX003 (ip), vehicle: saline): 108 % of control
T/C (endpoint: median survival time, dose: 320.0 mg/kg/injection, schedule: Q04DX003 (ip), vehicle: saline): 96 % of control

CCOC(=O)Nc1cc(NCCCCc2ccccc2)c2[nH]cnc2n1
T/C [4]: 95 % of control
T/C [5]: 93 % of control
T/C [6]: 102 % of control

CNC1CCC(C(=O)O)CC1 (configuration not stated)
T/C (endpoint: mean survival time, dose: 100.0 mg/kg/injection, schedule: Q01DX009 (ip), vehicle: saline): 107 % of control
T/C (endpoint: mean survival time, dose: 200.0 mg/kg/injection, schedule: Q01DX009 (ip), vehicle: saline): 103 % of control
T/C (endpoint: mean survival time, dose: 400.0 mg/kg/injection, schedule: Q01DX009 (ip), vehicle: saline): 96 % of control

Cc1ccc(NC(=O)OCCOc2ccccc2Cl)cc1C
T/C [8]: 96 % of control
T/C [9]: 93 % of control
T/C [10]: 93 % of control

CC(=O)NC(C(=O)O)=C(C)C
T/C [9]: 96 % of control
T/C [10]: 105 % of control
T/C (endpoint: mean survival time, dose: 400.0 mg/kg/injection, schedule: Q01DX009 (ip), vehicle: saline with Tween-80): 96 % of control

O=C(CCC(=O)c1cccc([N+](=O)[O-])c1)NNc1ccc([N+](=O)[O-])cc1[N+](=O)[O-]
T/C (endpoint: mean survival time, dose: 100.0 mg/kg/injection, schedule: Q04DX003 (ip), vehicle: saline with Tween-80): 98 % of control
T/C (endpoint: mean survival time, dose: 200.0 mg/kg/injection, schedule: Q04DX003 (ip), vehicle: saline with Tween-80): 98 % of control
T/C (endpoint: mean survival time, dose: 400.0 mg/kg/injection, schedule: Q04DX003 (ip), vehicle: saline with Tween-80): 102 % of control

O=C(O)C(O)C(O)C(O)C(O)CO.[NH-]C1CCCCC1[NH-].[Pt+2] (configuration not stated)
T/C [1]: 150 % of control and 290 % of control
T/C [2]: 230 % of control and 277 % of control
T/C [3]: 244 % of control and 314 % of control

C[n+]1c(-c2cccc(OCCOCCOc3cccc(-c4c5cc(N)ccc5c5ccc(N)cc5[n+]4C)c3)c2)c2cc(N)ccc2c2ccc(N)cc21
T/C (endpoint: median survival time, dose: 1.0 mg/kg/injection, schedule: Q01DX009 (ip), vehicle: water): 104 % of control
T/C (endpoint: median survival time, dose: 2.0 mg/kg/injection, schedule: Q01DX009 (ip), vehicle: saline with Tween-80): 101 % of control
T/C (endpoint: median survival time, dose: 2.0 mg/kg/injection, schedule: Q01DX009 (ip), vehicle: water): 114 % of control and 121 % of control
T/C (endpoint: median survival time, dose: 4.0 mg/kg/injection, schedule: Q01DX009 (ip), vehicle: saline with Tween-80): 102 % of control
T/C (endpoint: median survival time, dose: 4.0 mg/kg/injection, schedule: Q01DX009 (ip), vehicle: water): 114 % of control
T/C (endpoint: median survival time, dose: 8.0 mg/kg/injection, schedule: Q01DX009 (ip), vehicle: saline with Tween-80): 104 % of control
T/C (endpoint: median survival time, dose: 8.0 mg/kg/injection, schedule: Q01DX009 (ip), vehicle: water): 123 % of control
T/C (endpoint: median survival time, dose: 16.0 mg/kg/injection, schedule: Q01DX009 (ip), vehicle: saline with Tween-80): 105 % of control
T/C (endpoint: median survival time, dose: 32.0 mg/kg/injection, schedule: Q01DX009 (ip), vehicle: saline with Tween-80): 102 % of control

O=C(O)/C=C\C(=O)Nc1ccccn1
T/C (endpoint: mean survival time, dose: 5.0 mg/kg/injection, schedule: Q01DX009 (ip), vehicle: saline): 94 % of control
T/C (endpoint: mean survival time, dose: 5.0 mg/kg/injection, schedule: Q04DX003 (ip), vehicle: saline): 105 % of control and 106 % of control
T/C (endpoint: mean survival time, dose: 10.0 mg/kg/injection, schedule: Q01DX009 (ip), vehicle: saline): 92 % of control
T/C (endpoint: mean survival time, dose: 10.0 mg/kg/injection, schedule: Q04DX003 (ip), vehicle: saline): 97 % of control and 105 % of control
T/C (endpoint: mean survival time, dose: 20.0 mg/kg/injection, schedule: Q04DX003 (ip), vehicle: saline): 97 % of control and 98 % of control
T/C (endpoint: mean survival time, dose: 30.0 mg/kg/injection, schedule: Q01DX009 (ip), vehicle: saline): 100 % of control
T/C (endpoint: mean survival time, dose: 60.0 mg/kg/injection, schedule: Q01DX009 (ip), vehicle: saline): 105 % of control
